Columns and labels:
[1] = tested on: IPOHE (Morningglory, Ivyleaf); assay: Preemergence herbicidal evaluation; type: in vivo, Ipomoea hederacea; details: rated 4-5 weeks after treatment, rating scale 0-9
How it was run: (§1)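 Each species is sown separately in potting soil over roughly an inch of soil before any emergence. The soil surface then receives an aqueous acetone spray delivering about 0.0156 to 0.500 kg/ha of compound. After four to five weeks, injury is scored from 0 to 9 relative to a control.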

CASOB (Sicklepod) = assay: Preemergence herbicidal evaluation; type: in vivo, Cassia obtusifolia; details: rated 4-5 weeks after treatment, rating scale 0-9
How it was run: as §1

GALAP (Galium) = assay: Preemergence herbicidal evaluation; type: in vivo, Galium aparine; details: rated 4-5 weeks after treatment, rating scale 0-9
How it was run: as §1

ECHCG (Barnyardgrass) [2] = assay: Postemergence herbicidal evaluation; type: in vivo, Echinochloa crus-galli; details: postemergence
How it was run: (§2)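 Visual 0–9 rating versus control (stand, vigor, malformation, size, chlorosis, overall appearance), taken four to five weeks post-spray. Two-week-old seedlings received roughly 0.0156–0.500 kg/ha active in acetone/water (50/50) with 0.5% TWEEN 20 via nozzle at 40 psi.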

[3] = tested on: GLXMAW (Soybean, Williams); assay: Postemergence herbicidal evaluation; type: in vivo, Glycine max, (L.) Merr. cv Williams; details: postemergence
How it was run: as §2

SETVI (Foxtail, Green) = assay: Postemergence herbicidal evaluation; type: in vivo, Setaria viridis; details: postemergence
How it was run: as §2

ABUTH (Velvetleaf) = assay: Postemergence herbicidal evaluation; type: in vivo, Abutilon theophrasti; details: postemergence
How it was run: as §2

[4] = tested on: IPOHE (Morningglory, Ivyleaf); assay: Postemergence herbicidal evaluation; type: in vivo, Ipomoea hederacea; details: postemergence
How it was run: as §2

ECHCG (Barnyardgrass) [5] = assay: Preemergence herbicidal evaluation; type: in vivo, Echinochloa crus-galli; details: rated 4-5 weeks after treatment, rating scale 0-9
How it was run: as §1

[6] = tested on: CHEAL (Lambsquarters, Common); assay: Preemergence herbicidal evaluation; type: in vivo, Chenopodium album; details: rated 4-5 weeks after treatment, rating scale 0-9
How it was run: as §1

[7] = tested on: TRZAWR (Wheat, Winter, cv Riband); assay: Postemergence herbicidal evaluation; type: in vivo, Triticum aestivum; details: postemergence
How it was run: as §2

AMBEL (Ragweed, Common) = assay: Postemergence herbicidal evaluation; type: in vivo, Ambrosia artemisifolia; details: postemergence
How it was run: as §2

ZEAMX (Corn, Field) = assay: Preemergence herbicidal evaluation; type: in vivo, Zea mays; details: rated 4-5 weeks after treatment, rating scale 0-9
How it was run: as §1

Cn1c(C(F)(F)F)cc(=O)n(-c2cc(N=C3SCC(=O)N3Cc3cccc(Cl)c3)c(Cl)cc2F)c1=O [Compound 136, 3-{4-Chloro-5-{[3-(m-chlorobenzyl)-4-oxo-2-thiazolidinylidene]amino}-2-fluorophenyl}-1-methyl-6-(trifluoromethyl)-2,4(1H,3H)-pyrimidinedione]
Preemergence herbicidal rating IPOHE ([1]; rate 0.0156 kg/ha): 0.0 | Preemergence herbicidal rating IPOHE ([1]; rate 0.0313 kg/ha): 0.0 | Preemergence herbicidal rating IPOHE ([1]; rate 0.0625 kg/ha): 0.0 | Preemergence herbicidal rating IPOHE ([1]; rate 0.1250 kg/ha): 0.0 | Preemergence herbicidal rating IPOHE ([1]; rate 0.2500 kg/ha): 0.0 | Preemergence herbicidal rating CASOB (CASOB (Sicklepod); rate 0.0156 kg/ha): 0.0 | Preemergence herbicidal rating CASOB (CASOB (Sicklepod); rate 0.0313 kg/ha): 0.0 | Preemergence herbicidal rating CASOB (CASOB (Sicklepod); rate 0.0625 kg/ha): 0.0 | Preemergence herbicidal rating CASOB (CASOB (Sicklepod); rate 0.1250 kg/ha): 0.0 | Preemergence herbicidal rating CASOB (CASOB (Sicklepod); rate 0.2500 kg/ha): 0.0 | Preemergence herbicidal rating GALAP (GALAP (Galium); rate 0.0156 kg/ha): 0.0 | Preemergence herbicidal rating GALAP (GALAP (Galium); rate 0.0313 kg/ha): 0.0 | Preemergence herbicidal rating GALAP (GALAP (Galium); rate 0.0625 kg/ha): 1.0 | Preemergence herbicidal rating GALAP (GALAP (Galium); rate 0.1250 kg/ha): 2.0 | Preemergence herbicidal rating GALAP (GALAP (Galium); rate 0.2500 kg/ha): 3.0 | Herbicidal rating ECHCG (ECHCG (Barnyardgrass) [2]; rate 0.0156 kg/ha): 2.0 | Herbicidal rating ECHCG (ECHCG (Barnyardgrass) [2]; rate 0.0313 kg/ha): 3.0 | Herbicidal rating ECHCG (ECHCG (Barnyardgrass) [2]; rate 0.0625 kg/ha): 3.0 | Herbicidal rating GLXMAW ([3]; rate 0.0156 kg/ha): 4.5 | Herbicidal rating GLXMAW ([3]; rate 0.0313 kg/ha): 5.5 | Herbicidal rating GLXMAW ([3]; rate 0.0625 kg/ha): 5.5 | Herbicidal rating SETVI (SETVI (Foxtail, Green); rate 0.0156 kg/ha): 4.0 | Herbicidal rating SETVI (SETVI (Foxtail, Green); rate 0.0313 kg/ha): 6.0 | Herbicidal rating SETVI (SETVI (Foxtail, Green); rate 0.0625 kg/ha): 6.0 | Herbicidal rating ABUTH (ABUTH (Velvetleaf); rate 0.0156 kg/ha): 9.0 | Herbicidal rating ABUTH (ABUTH (Velvetleaf); rate 0.0313 kg/ha): 9.0 | Herbicidal rating ABUTH (ABUTH (Velvetleaf); rate 0.0625 kg/ha): 9.0 | Herbicidal rating IPOHE ([4]; rate 0.0156 kg/ha): 9.0 | Herbicidal rating IPOHE ([4]; rate 0.0313 kg/ha): 9.0 | Herbicidal rating IPOHE ([4]; rate 0.0625 kg/ha): 9.0 | Preemergence herbicidal rating ECHCG (ECHCG (Barnyardgrass) [5]; rate 0.0156 kg/ha): 0.0 | Preemergence herbicidal rating ECHCG (ECHCG (Barnyardgrass) [5]; rate 0.0313 kg/ha): 0.0 | Preemergence herbicidal rating ECHCG (ECHCG (Barnyardgrass) [5]; rate 0.0625 kg/ha): 0.0 | Preemergence herbicidal rating ECHCG (ECHCG (Barnyardgrass) [5]; rate 0.1250 kg/ha): 0.0 | Preemergence herbicidal rating ECHCG (ECHCG (Barnyardgrass) [5]; rate 0.2500 kg/ha): 0.0 | Preemergence herbicidal rating CHEAL ([6]; rate 0.0156 kg/ha): 2.0 | Preemergence herbicidal rating CHEAL ([6]; rate 0.0313 kg/ha): 9.0 | Preemergence herbicidal rating CHEAL ([6]; rate 0.0625 kg/ha): 9.0 | Preemergence herbicidal rating CHEAL ([6]; rate 0.1250 kg/ha): 9.0 | Preemergence herbicidal rating CHEAL ([6]; rate 0.2500 kg/ha): 9.0 | Herbicidal rating TRZAWR ([7]; rate 0.0156 kg/ha): 2.5 | Herbicidal rating TRZAWR ([7]; rate 0.0313 kg/ha): 3.0 | Herbicidal rating TRZAWR ([7]; rate 0.0625 kg/ha): 3.0 | Herbicidal rating AMBEL (AMBEL (Ragweed, Common); rate 0.0156 kg/ha): 9.0 | Herbicidal rating AMBEL (AMBEL (Ragweed, Common); rate 0.0313 kg/ha): 9.0 | Herbicidal rating AMBEL (AMBEL (Ragweed, Common); rate 0.0625 kg/ha): 9.0 | Preemergence herbicidal rating ZEAMX (ZEAMX (Corn, Field); rate 0.0156 kg/ha): 0.0 | Preemergence herbicidal rating ZEAMX (ZEAMX (Corn, Field); rate 0.0313 kg/ha): 0.0 | Preemergence herbicidal rating ZEAMX (ZEAMX (Corn, Field); rate 0.0625 kg/ha): 0.0 | Preemergence herbicidal rating ZEAMX (ZEAMX (Corn, Field); rate 0.1250 kg/ha): 1.0 | Preemergence herbicidal rating ZEAMX (ZEAMX (Corn, Field); rate 0.2500 kg/ha): 3.0
